Laboratory results: PubChem BioAssay (NCI)
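The compound was tested at five concentrations on cells cultured in 96-well plates, with a 48-hour exposure period. GI50 is the concentration that inhibits growth by half. TGI denotes the concentration required for complete inhibition of growth.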

Tests used:
Assay in all cases: NCI anticancer screen, dose series, 48 h
[1] = tested on: 786-0 renal
[2] = tested on: A498 renal
[3] = tested on: A549 NSCLC
[4] = tested on: ACHN renal
[5] = tested on: CAKI-1 renal
[6] = tested on: CCRF-CEM leukemia
[7] = tested on: COLO 205 colon
[8] = tested on: DLD-1 colon
[9] = tested on: DMS 114 small cell lung
[10] = tested on: DMS 273 small cell lung
[11] = tested on: EKVX NSCLC
[12] = tested on: HCC-2998 colon
[13] = tested on: HCT-116 colon
[14] = tested on: HCT-15 colon
[15] = tested on: HL-60(TB) leukemia
[16] = tested on: HOP-18 NSCLC
[17] = tested on: HOP-62 NSCLC
[18] = tested on: HOP-92 NSCLC
[19] = tested on: HT29 colon
[20] = tested on: IGROV1 ovarian
[21] = tested on: K-562 leukemia
[22] = tested on: KM12 colon
[23] = tested on: KM20L2 colon
[24] = tested on: LOX IMVI melanoma
[25] = tested on: LXFL 529 NSCLC
[26] = tested on: M14 melanoma
[27] = tested on: M19-MEL melanoma
[28] = tested on: MALME-3M melanoma
[29] = tested on: MOLT-4 leukemia
[30] = tested on: NCI-H226 lung
[31] = tested on: NCI-H23 lung
[32] = tested on: NCI-H460 lung
[33] = tested on: OVCAR-3 ovarian
[34] = tested on: OVCAR-4 ovarian
[35] = tested on: OVCAR-5 ovarian
[36] = tested on: OVCAR-8 ovarian
[37] = tested on: RPMI-8226 leukemia
[38] = tested on: SF-268 CNS
[39] = tested on: SF-295 CNS
[40] = tested on: SF-539 CNS
[41] = tested on: SK-MEL-2 melanoma
[42] = tested on: SK-MEL-28 melanoma
[43] = tested on: SK-MEL-5 melanoma
[44] = tested on: SK-OV-3 ovarian
[45] = tested on: SN12C renal
[46] = tested on: SNB-19 CNS
[47] = tested on: SNB-75 CNS
[48] = tested on: SNB-78 CNS
[49] = tested on: SR leukemia
[50] = tested on: SW-620 colon
[51] = tested on: TK-10 renal
[52] = tested on: U251 CNS
[53] = tested on: UACC-257 melanoma
[54] = tested on: UACC-62 melanoma
[55] = tested on: UO-31 renal
[56] = tested on: XF 498 CNS
[57] = tested on: NCI-H522 lung
[58] = tested on: RXF 393 renal

## COc1cccc(/C=N/[N-]C(=O)c2ccncc2)c1[O-].[Mn+2].[OH3+]
[1]
  GI50: 5.43 µM
  TGI: > 100 µM
[2]
  GI50: 27.4 µM
  TGI: 94.3 µM
[3]
  GI50: 5.69 µM
  TGI: > 100 µM
[4]
  GI50: 3.75 µM
  TGI: 47.8 µM
[5]
  GI50: 8.97 µM
  TGI: > 100 µM
[6]
  GI50: 1.8 µM
  TGI: 6.26 µM
[7]
  GI50: 4.49 µM
  TGI: > 100 µM
[8]
  GI50: 5.23 µM
  TGI: > 100 µM
[9]
  GI50: 14.6 µM
  TGI: 58.7 µM
[10]
  GI50: 6.73 µM
  TGI: 73.5 µM
[11]
  GI50: 9.25 µM
  TGI: > 100 µM
[12]
  GI50: 19 µM
  TGI: > 100 µM
[13]
  GI50: 3.63 µM
  TGI: > 100 µM
[14]
  GI50: 4.14 µM
  TGI: > 100 µM
[15]
  GI50: 1.45 µM
  TGI: 4.19 µM
[16]
  GI50: 14.7 µM
  TGI: > 100 µM
[17]
  GI50: 5.86 µM
  TGI: > 100 µM
[18]
  GI50: 24.7 µM
  TGI: > 100 µM
[19]
  GI50: 4.7 µM
  TGI: > 100 µM
[20]
  GI50: 8.29 µM
  TGI: > 100 µM
[21]
  GI50: 2.9 µM
  TGI: 9.69 µM
[22]
  GI50: 8.31 µM
  TGI: > 100 µM
[23]
  GI50: 4.51 µM
  TGI: > 100 µM
[24]
  GI50: 6.59 µM
  TGI: > 100 µM
[25]
  GI50: 15.3 µM
  TGI: > 100 µM
[26]
  GI50: 7.96 µM
  TGI: 52.4 µM
[27]
  GI50: 7.54 µM
  TGI: 46.4 µM
[28]
  GI50: 25.5 µM
  TGI: > 100 µM
[29]
  GI50: 3.24 µM
  TGI: > 100 µM
[30]
  GI50: 12.4 µM
  TGI: 86.5 µM
[31]
  GI50: 8.12 µM
  TGI: 41.1 µM
[32]
  GI50: 4.34 µM
  TGI: > 100 µM
[33]
  GI50: 3.51 µM
  TGI: > 100 µM
[34]
  GI50: 22.1 µM
  TGI: > 100 µM
[35]
  GI50: 37 µM
  TGI: 88.9 µM
[36]
  GI50: 3.77 µM
  TGI: > 100 µM
[37]
  GI50: 6 µM
  TGI: > 100 µM
[38]
  GI50: 4.97 µM
  TGI: 79.5 µM
[39]
  GI50: 16.2 µM
  TGI: > 100 µM
[40]
  GI50: 2.51 µM
  TGI: 8.97 µM
[41]
  GI50: 25.6 µM
  TGI: > 100 µM
[42]
  GI50: 11.2 µM
  TGI: > 100 µM
[43]
  GI50: 12.3 µM
  TGI: 30.3 µM
[44]
  GI50: 5.94 µM
  TGI: 50.2 µM
[45]
  GI50: 17.8 µM
  TGI: > 100 µM
[46]
  GI50: 42 µM
  TGI: > 100 µM
[47]
  GI50: 26.8 µM
  TGI: > 100 µM
[48]
  GI50: > 100 µM
  TGI: > 100 µM
[49]
  GI50: 3.63 µM
  TGI: > 100 µM
[50]
  GI50: 4.42 µM
  TGI: > 100 µM
[51]
  GI50: 18.3 µM
  TGI: > 100 µM
[52]
  GI50: 5.45 µM
  TGI: > 100 µM
[53]
  GI50: 5.05 µM
  TGI: 96.2 µM
[54]
  GI50: 3.9 µM
  TGI: 23.2 µM
[55]
  GI50: 3.83 µM
  TGI: 26.5 µM
[56]
  GI50: 12.3 µM
  TGI: 86.9 µM

## COc1ccc(C(c2ccccc2C(=O)O)c2ccc(OC)c3ccccc23)c2ccccc12
[1]
  TGI: 30.5 µM
[2]
  TGI: 39 µM
[3]
  TGI: 31 µM
[4]
  TGI: 23.5 µM
[5]
  TGI: 63.4 µM
[6]
  TGI: > 100 µM
[7]
  TGI: 30.2 µM
[8]
  TGI: 22.2 µM
[9]
  TGI: 21.1 µM
[10]
  TGI: 32.4 µM
[11]
  TGI: 49.8 µM
[12]
  TGI: 19.8 µM
[14]
  TGI: 28.8 µM
[15]
  TGI: 38.1 µM
[16]
  TGI: 13.4 µM
[17]
  TGI: 30.2 µM
[18]
  TGI: 50.8 µM
[19]
  TGI: 27.5 µM
[20]
  TGI: 25.5 µM
[21]
  TGI: > 100 µM
[22]
  TGI: 23.1 µM
[23]
  TGI: 26.5 µM
[24]
  TGI: 50.6 µM
[25]
  TGI: 20.7 µM
[26]
  TGI: 33 µM
[27]
  TGI: 27.6 µM
[28]
  TGI: 27.9 µM
[29]
  TGI: 66 µM
[30]
  TGI: 63.5 µM
[57]
  TGI: 32.7 µM
[33]
  TGI: 26.6 µM
[34]
  TGI: 25.6 µM
[35]
  TGI: 31.4 µM
[36]
  TGI: 34.8 µM
[37]
  TGI: 20.8 µM
[39]
  TGI: 25.6 µM
[40]
  TGI: 24.4 µM
[43]
  TGI: 34.2 µM
[44]
  TGI: 45.1 µM
[45]
  TGI: 29.7 µM
[46]
  TGI: 25.4 µM
[48]
  TGI: 50.4 µM
[50]
  TGI: 44.4 µM
[51]
  TGI: 45.3 µM
[52]
  TGI: 26.6 µM
[53]
  TGI: 24.5 µM
[54]
  TGI: 16.4 µM
[55]
  TGI: 19.4 µM
[56]
  TGI: 46.7 µM

## c1ccc2c(c1)nnn2CNc1ccc(N2CCCCC2)cc1
[1]
  TGI: > 100 µM
[2]
  TGI: > 100 µM
[3]
  TGI: > 100 µM
[4]
  TGI: > 100 µM
[6]
  TGI: > 100 µM
[7]
  TGI: > 100 µM
[8]
  TGI: > 100 µM
[9]
  TGI: > 100 µM
[10]
  TGI: > 100 µM
[11]
  TGI: > 100 µM
[12]
  TGI: > 100 µM
[13]
  TGI: > 100 µM
[14]
  TGI: > 100 µM
[15]
  TGI: > 100 µM
[16]
  TGI: > 100 µM
[17]
  TGI: > 100 µM
[18]
  TGI: > 100 µM
[19]
  TGI: > 100 µM
[20]
  TGI: > 100 µM
[21]
  TGI: > 100 µM
[22]
  TGI: > 100 µM
[23]
  TGI: > 100 µM
[24]
  TGI: > 100 µM
[25]
  TGI: > 100 µM
[26]
  TGI: > 100 µM
[28]
  TGI: > 100 µM
[29]
  TGI: > 100 µM
[30]
  TGI: > 100 µM
[31]
  TGI: > 100 µM
[32]
  TGI: > 100 µM
[57]
  TGI: > 100 µM
[33]
  TGI: > 100 µM
[34]
  TGI: > 100 µM
[36]
  TGI: > 100 µM
[37]
  TGI: > 100 µM
[58]
  TGI: > 100 µM
[38]
  TGI: > 100 µM
[39]
  TGI: > 100 µM
[40]
  TGI: > 100 µM
[41]
  TGI: > 100 µM
[42]
  TGI: > 100 µM
[44]
  TGI: > 100 µM
[45]
  TGI: > 100 µM
[46]
  TGI: > 100 µM
[47]
  TGI: > 100 µM
[48]
  TGI: > 100 µM
[49]
  TGI: > 100 µM
[50]
  TGI: > 100 µM
[51]
  TGI: > 100 µM
[52]
  TGI: > 100 µM
[53]
  TGI: > 100 µM
[54]
  TGI: > 100 µM
[55]
  TGI: > 100 µM
[56]
  TGI: > 100 µM
